According to patent EP3723745B1, “PHENOXY ACIDS FOR THE TREATMENT OF NEUROMUSCULAR DISORDERS” (NMD Pharma A/S, priority 2017, dated 2019):

Biological target: T1, human CIC-1 channels (Homo sapiens, UniProt P35523)
T1 construct: host or cells: CHO cells constitutively expressing human ClC-1
Assay: Automated patch-clamp on human CIC-1 expressed in CHO cells
Format: cell-based
Conditions: difference in half activation voltage, compound added intracellularly vs control cell patches; positive shift = CIC-1 inhibition
Description: The investigatory goal of these experiments was to evaluate how compounds affect the open probability and current amplitude of human CIC-1 channels expressed in CHO cells. Experiments were performed using an automated patch clamp system that allowed high throughput testing of whole cell patches together with both intracellular and extracellular addition of compound.
Automated whole cell patch clamp experiments were performed with the Qpatch 16 system (Sophion Bioscience, Ballerup, Denmark) at room temperature. Data acquisition and analysis were performed in the Qassay software (ver. 5.6, Odense).
To evoke CIC-1 currents in whole cell patches, the membrane potential was initially stepped from a holding potential of -30 mV to +60 mV for 100 ms and then to various test voltages (sweeps) ranging from +120 mV to -140 mV in steps of 20 mV for 300 ms. To obtain tail currents, the membrane potential was stepped to -100 mV after each test voltage for 300 ms and then relaxed to -30 mV for 2 sec between sweeps (Figure 3). I/V relationships for whole cell instant and steady state current amplitudes were obtained by plotting average current densities at the beginning and at the end of the 300 ms step against the membrane potential (Figure 4).
In order to determine the relative overall open probability (P0), the instantaneous tail currents were normalized to the maximal tail current obtained following the most positive voltage step and plotted against the test voltage. Plots of normalized tail currents from each whole cell patch were then fitted to a Boltzmann function allowing determination of half activation voltages (V1/2, Figure 5).
For automated patch clamp experiments extracellular solutions contained: 2 mM CaCl2, 1 mM MgCl2, 10 mM HEPES, 4 mM KCI, 145 mM NaCl, 10 mM Glucose, pH adjusted to 7.4 with NaOH (2 M). Osmolality adjusted to -320 using sucrose.
Intracellular solutions contained: 80 mM CsF, 60 mM CsCI, 5/1 mM KOH/EGTA, 10 mM HEPES, 10 mM NaCl, pH adjusted to 7.2 with NaOH (2 M). Osmolality adjusted to -320 mOsm using sucrose.
Cells used in patch clamp experiments were Chinese hamster ovary cells (CHO) constitutively expressing human CIC-1 channels. The amino acid sequence encoded by the cDNA used to create this cell line was identical to the translated sequence for GenBank accession number NM_000083.2. Cells were produced by Charles River (Catalogue CT6175, Cleveland OH, USA) in a cryopreserved format. Experiments were performed on the cells directly after thawing (3 × 10^6 cells used in each experiment).
To evaluate the compound effect on CIC-1, when applied directly to the intracellular side of the cell membrane, the half activation voltage, V1/2, was determined from whole cell patches with compound added to the intracellular solution and then compared to V1/2 determined from control cell patches with only vehicle added to the intracellular solution. Additionally, the effect of extracellular added compound was evaluated by determine V1/2 and steady state current amplitudes before and after exchanging the extracellular solution to contain compound.
The difference in half activation voltage of CIC-1 channels, ΔV1/2, was determined as the difference between the cell patches treated intracellularly with compound and control cells patches and is reported in Table 4 below. A positive shift in ΔV1/2 is reflecting CIC-1 channel inhibition by the tested compound. P-values of <0.05 is considered significant. […]

T1 sequence (P35523 whole entry): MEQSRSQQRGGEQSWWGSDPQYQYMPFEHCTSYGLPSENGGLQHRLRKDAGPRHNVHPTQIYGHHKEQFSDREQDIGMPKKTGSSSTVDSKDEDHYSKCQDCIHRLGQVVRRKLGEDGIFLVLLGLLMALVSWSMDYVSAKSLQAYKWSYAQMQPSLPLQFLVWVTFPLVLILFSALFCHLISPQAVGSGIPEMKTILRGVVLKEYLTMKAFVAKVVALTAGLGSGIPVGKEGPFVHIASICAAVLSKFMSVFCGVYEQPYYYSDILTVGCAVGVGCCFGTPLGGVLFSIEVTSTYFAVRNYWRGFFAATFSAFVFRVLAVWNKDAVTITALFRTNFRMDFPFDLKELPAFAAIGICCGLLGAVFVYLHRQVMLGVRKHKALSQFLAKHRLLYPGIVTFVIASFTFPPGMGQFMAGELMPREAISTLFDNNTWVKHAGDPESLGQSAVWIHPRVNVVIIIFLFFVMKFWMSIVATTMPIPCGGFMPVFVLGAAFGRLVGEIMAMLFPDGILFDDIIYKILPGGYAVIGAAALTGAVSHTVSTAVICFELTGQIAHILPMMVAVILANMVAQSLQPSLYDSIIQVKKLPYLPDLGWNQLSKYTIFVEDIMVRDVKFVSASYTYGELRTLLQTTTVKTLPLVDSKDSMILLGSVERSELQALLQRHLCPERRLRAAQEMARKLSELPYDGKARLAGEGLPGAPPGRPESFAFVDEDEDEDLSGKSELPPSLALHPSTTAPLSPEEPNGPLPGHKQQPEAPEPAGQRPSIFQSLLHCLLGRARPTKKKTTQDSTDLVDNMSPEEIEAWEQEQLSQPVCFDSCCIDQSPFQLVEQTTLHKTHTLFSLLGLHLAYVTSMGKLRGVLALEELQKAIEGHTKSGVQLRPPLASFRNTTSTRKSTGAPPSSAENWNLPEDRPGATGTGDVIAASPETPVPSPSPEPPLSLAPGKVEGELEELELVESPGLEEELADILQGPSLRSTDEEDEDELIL

ΔV1/2 [mV] | Structure (SMILES)
16.4 | O=C(O)[C@H](CCF)Oc1ccc(Br)cc1 [Compound A-87, (2S)-2-(4-bromophenoxy)-4-fluorobutanoic acid]
20.2 | CC(C)[C@H](Oc1ccc(Br)cc1F)C(=O)O [Compound A-27, (2S)-2-(4-bromo-2-fluorophenoxy)-3-methylbutanoic acid]

Structure (SMILES) | ΔV1/2 [mV]
[2H][C@@](CC)(Oc1ccc(Br)cc1)C(=O)O [Compound A-60, (2S)-2-(4-bromophenoxy)(2-^2H)butanoic acid] | 20.0
